# Results taken from ChEMBL document CHEMBL4138123, “Design, synthesis and biological evaluation of novel pyrazolochalcones as potential modulators of PI3K/Akt/mTOR pathway and inducers of apoptosis in breast cancer cells” (Eur J Med Chem, 2017).
# Columns and labels:
# Assay type in all cases: functional
# M14 [1] = assay: Cytotoxicity against human M14 cells assessed as cell growth at 0.1 uM after 48 hrs by sulforhodamine B assay relative to control; conditions: M14, 48 h, read-out: Activity
# IGROV-1 [2] = assay: Cytotoxicity against human IGROV1 cells assessed as cell growth at 100 uM after 48 hrs by sulforhodamine B assay relative to control; conditions: IGROV-1, 48 h, read-out: Activity
# HL-60(TB) = assay: Cytotoxicity against human HL-60(TB) cells assessed as cell growth at 10 uM after 48 hrs by sulforhodamine B assay relative to control; conditions: HL-60, 48 h, read-out: Activity
# NCI-H23 = assay: Cytotoxicity against human NCI-H23 cells assessed as cell growth at 1 uM after 48 hrs by sulforhodamine B assay relative to control; conditions: NCI-H23, 48 h, read-out: Activity
# OVCAR-5 = assay: Cytotoxicity against human OVCAR5 cells assessed as cell growth at 100 uM after 48 hrs by sulforhodamine B assay relative to control; conditions: OVCAR-5, 48 h, read-out: Activity
# A498 [3] = assay: Cytotoxicity against human A498 cells assessed as cell growth at 0.1 uM after 48 hrs by sulforhodamine B assay relative to control; conditions: A498, 48 h, read-out: Activity
# UO-31 [4] = assay: Cytotoxicity against human UO31 cells assessed as cell growth at 100 uM after 48 hrs by sulforhodamine B assay relative to control; conditions: UO-31, 48 h, read-out: Activity
# NCI-H226 = assay: Cytotoxicity against human NCI-H226 cells assessed as cell growth at 100 uM after 48 hrs by sulforhodamine B assay relative to control; conditions: NCI-H226, 48 h, read-out: Activity
# RXF 393 = assay: Cytotoxicity against human RXF393 cells assessed as cell growth at 10 uM after 48 hrs by sulforhodamine B assay relative to control; conditions: RXF 393, 48 h, read-out: Activity
# OVCAR-3 = assay: Cytotoxicity against human OVCAR3 cells assessed as cell growth at 1 uM after 48 hrs by sulforhodamine B assay relative to control; conditions: OVCAR-3, 48 h, read-out: Activity
# 786-0 = assay: Cytotoxicity against human 786-0 cells assessed as cell growth at 0.1 uM after 48 hrs by sulforhodamine B assay relative to control; conditions: 786-0, 48 h, read-out: Activity
# SNB-19 = assay: Cytotoxicity against human SNB19 cells assessed as cell growth at 1 uM after 48 hrs by sulforhodamine B assay relative to control; conditions: SNB-19, 48 h, read-out: Activity
# COLO 205 [5] = assay: Cytotoxicity against human COLO205 cells assessed as cell growth at 100 uM after 48 hrs by sulforhodamine B assay relative to control; conditions: COLO 205, 48 h, read-out: Activity
# Malme-3M [6] = assay: Cytotoxicity against human MALME-3M cells assessed as cell growth at 1 uM after 48 hrs by sulforhodamine B assay relative to control; conditions: read-out: Activity
# UO-31 [7] = assay: Cytotoxicity against human UO31 cells assessed as cell growth at 1 uM after 48 hrs by sulforhodamine B assay relative to control; conditions: UO-31, 48 h, read-out: Activity
# SF-268 = assay: Cytotoxicity against human SF268 cells assessed as cell growth at 0.01 uM after 48 hrs by sulforhodamine B assay relative to control; conditions: SF-268, 48 h, read-out: Activity
# MDA-MB-468 [8] = assay: Cytotoxicity against human MDA-MB-468 cells assessed as cell growth at 1 uM after 48 hrs by sulforhodamine B assay relative to control; conditions: MDA-MB-468, 48 h, read-out: Activity
# NCI-H322M = assay: Cytotoxicity against human NCI-H322M cells assessed as cell growth at 0.1 uM after 48 hrs by sulforhodamine B assay relative to control; conditions: read-out: Activity
# HOP-62 = assay: Cytotoxicity against human HOP62 cells assessed as cell growth at 0.01 uM after 48 hrs by sulforhodamine B assay relative to control; conditions: HOP-62, 48 h, read-out: Activity
# M14 [9] = assay: Cytotoxicity against human M14 cells assessed as growth inhibition after 48 hrs by sulforhodamine B assay; conditions: M14, 48 h
# SR = assay: Cytotoxicity against human SR cells assessed as cell growth at 0.1 uM after 48 hrs by sulforhodamine B assay relative to control; conditions: read-out: Activity
# A498 [10] = assay: Cytotoxicity against human A498 cells assessed as cell growth at 100 uM after 48 hrs by sulforhodamine B assay relative to control; conditions: A498, 48 h, read-out: Activity
# HT-29 = assay: Cytotoxicity against human HT-29 cells assessed as cell growth at 1 uM after 48 hrs by sulforhodamine B assay relative to control; conditions: HT-29, 48 h, read-out: Activity
# HCT-15 = assay: Cytotoxicity against human HCT15 cells assessed as cell growth at 0.1 uM after 48 hrs by sulforhodamine B assay relative to control; conditions: HCT-15, 48 h, read-out: Activity
# MDA-MB-468 [11] = assay: Cytotoxicity against human MDA-MB-468 cells assessed as cell growth at 0.1 uM after 48 hrs by sulforhodamine B assay relative to control; conditions: MDA-MB-468, 48 h, read-out: Activity
# ACHN = assay: Cytotoxicity against human ACHN cells assessed as growth inhibition after 48 hrs by sulforhodamine B assay
# MDA-MB-231 = assay: Cytotoxicity against human MDA-MB-231 cells assessed as cell growth at 100 uM after 48 hrs by sulforhodamine B assay relative to control; conditions: MDA-MB-231, 48 h, read-out: Activity
# UO-31 [12] = assay: Cytotoxicity against human UO31 cells assessed as cell growth at 0.01 uM after 48 hrs by sulforhodamine B assay relative to control; conditions: UO-31, 48 h, read-out: Activity
# M14 [13] = assay: Cytotoxicity against human M14 cells assessed as cell growth at 10 uM after 48 hrs by sulforhodamine B assay relative to control; conditions: M14, 48 h, read-out: Activity
# MCF7 = assay: Cytotoxicity against human MCF7 cells assessed as growth inhibition after 48 hrs by sulforhodamine B assay; conditions: MCF7, 48 h
# COLO 205 [14] = assay: Cytotoxicity against human COLO205 cells assessed as cell growth at 0.01 uM after 48 hrs by sulforhodamine B assay relative to control; conditions: COLO 205, 48 h, read-out: Activity
# Malme-3M [15] = assay: Cytotoxicity against human MALME-3M cells assessed as cell growth at 10 uM after 48 hrs by sulforhodamine B assay relative to control; conditions: read-out: Activity
# K562 = assay: Cytotoxicity against human K562 cells assessed as cell growth at 100 uM after 48 hrs by sulforhodamine B assay relative to control; conditions: K562, 48 h, read-out: Activity
# Malme-3M [16] = assay: Cytotoxicity against human MALME-3M cells assessed as cell growth at 100 uM after 48 hrs by sulforhodamine B assay relative to control; conditions: read-out: Activity
# HCC 2998 = assay: Cytotoxicity against human HCC2998 cells assessed as growth inhibition after 48 hrs by sulforhodamine B assay; conditions: HCC 2998, 48 h
# IGROV-1 [17] = assay: Cytotoxicity against human IGROV1 cells assessed as cell growth at 0.1 uM after 48 hrs by sulforhodamine B assay relative to control; conditions: IGROV-1, 48 h, read-out: Activity
# COLO 205 [18] = assay: Cytotoxicity against human COLO205 cells assessed as cell growth at 1 uM after 48 hrs by sulforhodamine B assay relative to control; conditions: COLO 205, 48 h, read-out: Activity
smiles,measurement,setting,value
COc1cc(C(=O)/C=C/c2cc(-c3ccc4c(c3)OCO4)n[nH]2)cc(OC)c1OC,growth at 0.1 µM,M14 [1],93%
same,growth at 100 µM,IGROV-1 [2],-90%
same,growth at 10 µM,HL-60(TB),-20%
same,growth at 1 µM,NCI-H23,92%
same,growth at 100 µM,OVCAR-5,-56%
same,growth at 0.1 µM,A498 [3],90%
same,growth at 100 µM,UO-31 [4],-95%
same,growth at 100 µM,NCI-H226,-46%
same,growth at 10 µM,RXF 393,-76%
same,growth at 1 µM,OVCAR-3,87%
same,growth at 0.1 µM,786-0,98%
same,growth at 1 µM,SNB-19,75%
same,growth at 100 µM,COLO 205 [5],-74%
same,growth at 1 µM,Malme-3M [6],83%
same,growth at 1 µM,UO-31 [7],71%
same,growth at 0.01 µM,SF-268,96%
same,growth at 1 µM,MDA-MB-468 [8],68%
same,growth at 0.1 µM,NCI-H322M,94%
same,growth at 0.01 µM,HOP-62,100%
same,GI50,M14 [9],2.91 µM
same,LC50 (concentration killing 50% of cells),M14 [9],37.8 µM
same,TGI,M14 [9],9.21 µM
same,growth at 0.1 µM,SR,94%
same,growth at 100 µM,A498 [10],-98%
same,growth at 1 µM,HT-29,96%
same,growth at 0.1 µM,HCT-15,101%
same,growth at 0.1 µM,MDA-MB-468 [11],82%
same,GI50,ACHN,2.2 µM
same,LC50,ACHN,18.8 µM
same,TGI,ACHN,4.95 µM
same,growth at 100 µM,MDA-MB-231,-97%
same,growth at 0.01 µM,UO-31 [12],85%
same,growth at 10 µM,M14 [13],-4%
same,GI50,MCF7,1.06 µM
same,LC50,MCF7,7.88 µM
same,TGI,MCF7,2.88 µM
same,growth at 0.01 µM,COLO 205 [14],100%
same,growth at 10 µM,Malme-3M [15],-41%
same,growth at 100 µM,K562,5%
same,growth at 100 µM,Malme-3M [16],-91%
same,GI50,HCC 2998,2.02 µM
same,LC50,HCC 2998,8.23 µM
same,TGI,HCC 2998,4.07 µM
same,growth at 0.1 µM,IGROV-1 [17],87%
same,growth at 1 µM,COLO 205 [18],95%
